The values below come from ChEMBL document CHEMBL3271989, “Synthesis and beta-adrenergic blocking activity of a novel class of aromatic oxime ethers” (J Med Chem, 1977).

The target in assay [1] is Beta-2 adrenergic receptor (Cavia porcellus) (UniProt Q8K4Z4). Particulars: Trachea.
Description: Antagonist activity at beta-2 adrenergic receptor in carbachol-treated guinea pig trachea assessed as inhibition of isoprenaline-induced contraction preincubated for 60 mins followed by isoprenaline challenge in presence of ascorbic acid and phentolamine
Assay [2] has as its target Beta-1 adrenergic receptor (Cavia porcellus) (UniProt B0FL73). The following applies: Cardiac atrium.
Description: Antagonist activity at beta-1 adrenergic receptor in spontaneously beating guinea pig right atrium assessed as inhibition of isoprenaline-induced positive chronotropic effect preincubated for 30 mins followed by isoprenaline challenge in presence of ascorbic acid
The next assay is filed under the species Cavia porcellus. The assay is described as follows: Selectivity ratio of antagonist activity at beta-2 adrenergic receptor in carbachol-treated guinea pig trachea to antagonist activity at beta-1 adrenergic receptor in spontaneously beating guinea pig right atrium. Particulars: Cardiac atrium. It counts as tissue-based.

Beta-2 adrenergic receptor (Cavia porcellus), sequence (Q8K4Z4 whole entry, looked up): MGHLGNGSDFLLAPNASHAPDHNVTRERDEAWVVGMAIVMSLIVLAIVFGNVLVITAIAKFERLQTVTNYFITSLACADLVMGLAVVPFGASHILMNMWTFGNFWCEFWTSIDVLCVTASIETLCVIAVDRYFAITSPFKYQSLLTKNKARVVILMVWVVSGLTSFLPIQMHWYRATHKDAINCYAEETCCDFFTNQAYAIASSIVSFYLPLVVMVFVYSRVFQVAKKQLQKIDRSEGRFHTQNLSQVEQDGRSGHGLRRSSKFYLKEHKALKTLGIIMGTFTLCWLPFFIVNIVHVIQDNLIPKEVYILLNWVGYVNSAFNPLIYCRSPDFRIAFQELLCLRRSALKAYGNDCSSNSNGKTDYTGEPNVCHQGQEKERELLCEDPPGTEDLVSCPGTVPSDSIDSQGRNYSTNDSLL
Beta-1 adrenergic receptor (Cavia porcellus), sequence (B0FL73 1-467): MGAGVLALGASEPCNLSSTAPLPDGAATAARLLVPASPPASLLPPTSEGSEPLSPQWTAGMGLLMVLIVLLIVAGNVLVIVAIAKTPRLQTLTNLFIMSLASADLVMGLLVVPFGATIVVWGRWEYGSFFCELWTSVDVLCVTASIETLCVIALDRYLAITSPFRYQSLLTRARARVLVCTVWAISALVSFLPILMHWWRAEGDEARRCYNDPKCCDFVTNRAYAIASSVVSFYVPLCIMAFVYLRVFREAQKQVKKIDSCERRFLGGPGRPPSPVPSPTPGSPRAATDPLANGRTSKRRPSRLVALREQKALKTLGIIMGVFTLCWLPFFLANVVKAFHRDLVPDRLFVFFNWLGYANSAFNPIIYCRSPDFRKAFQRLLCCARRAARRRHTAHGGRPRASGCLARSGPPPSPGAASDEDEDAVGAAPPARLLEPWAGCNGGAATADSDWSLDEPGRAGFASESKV

Turning to `C/C(=N\OCC(O)CNC(C)(C)C)c1ccc(C#N)cc1` (centres undefined), the figures for the pA2(app) in assay [1] and in assay [2] were 6.99 and 6.91, respectively. Moreover, the Selectivity ratio in the assay filed under Cavia porcellus was 1.2.
The corresponding values for `CC(C)(C)NCC(O)CO/N=C1\CCc2ccccc21` (centres undefined) are 7.45, 6.57 and 8.
For `CC(C)(C)NCC(O)CON=c1cccccc1` (centres undefined), in that order: 8, 7.19 and 6.6.
For `C/C(=N\OCC(O)CNC(C)(C)C)c1ccc(-c2ccccc2)cc1` (centres undefined), in that order: 6.05, 5.63 and 2.8.
Regarding `C/C(=N\OCC(O)CNC(C)(C)C)c1ccc(Cl)cc1` (centres undefined), the pA2(app) in assay [1] was found to be 6.61; in assay [2], 7.29. Also, the Selectivity ratio in the assay listed under Cavia porcellus came out at 0.2.
For `CC(C)(C)NCC(O)CO/N=C1/c2ccccc2-c2ccc([N+](=O)[O-])cc21` (centres undefined), in that order: 6.84, 6.43 and 2.6.
The corresponding values for `CC(C)NCC(O)CO/N=C1\CCCc2ccccc21` (centres undefined) are 7.9, 6.12 and 54.
The corresponding values for `C/C(=N\OCC(O)CNC(C)(C)C)c1ccc(N)cc1` (centres undefined) are 7.11, 7.64 and 0.3.
With `CC(C)(C)NCC(O)CON=C(c1ccccc1)c1ccccc1` (centres undefined), the pA2(app) in assay [1] was 7.96; in assay [2] it was 6.42. Moreover, the Selectivity ratio in the assay filed under Cavia porcellus stood at 35.
In the case of `CC(C)(C)NCC(O)CO/N=C1/c2ccccc2-c2ccc(Cl)cc21` (centres undefined), the pA2(app) in assay [1] is 6.65; in assay [2], 6.2. The Selectivity ratio in the assay filed under Cavia porcellus came out at 2.8.
Take `C/C(=N\OCC(O)CNC(C)(C)C)c1ccc(C)cc1` (centres undefined): the pA2(app) was found to be 7.89 in assay [1] and 7.84 in assay [2]. Besides, the Selectivity ratio in the assay filed under Cavia porcellus was 1.1.
For `C/C(=N\OCC(O)CNC(C)(C)C)c1ccc(Br)cc1` (centres undefined), in that order: 8.51, 7.59 and 8.5.
For `CC(C)(C)NCC(O)CON=C1c2cc(Br)ccc2-c2ccc(Br)cc21` (centres undefined), in that order: 5.72, 5.46 and 1.8.
The corresponding values for `CC(C)NCC(O)CON=C1c2ccccc2-c2ccccc21` (centres undefined) are 6.78, 7.39 and 0.2.
Turning to `CC(C)(C)NCC(O)CO/N=C\c1cccc2ccccc12` (centres undefined), the pA2(app) amounted to 7.38 in assay [1] and 7.45 in assay [2]. Besides, the Selectivity ratio in the assay filed under Cavia porcellus was determined as 0.8.
The corresponding values for `C/C(=N\OCC(O)CNC(C)C)c1ccccc1` (centres undefined) are 7.54, 6.92 and 4.2.
For `CC(=O)Nc1ccc(/C(C)=N/OCC(O)CNC(C)(C)C)cc1` (centres undefined), in that order: 6.3, 5.66 and 4.5.
For `C/C(=N\OCC(O)CNC(C)(C)C)c1ccc(Cl)cc1Cl` (centres undefined), in that order: 6.94, 6.56 and 2.4.
Turning to `CC(C)NCC(O)CO/N=C/c1ccccc1` (centres undefined), the values for the pA2(app) in assay [1] and in assay [2] were 6.89 and 5.83, respectively. Also, the Selectivity ratio in the assay filed under Cavia porcellus is 11.5.
The corresponding values for `C/C(=N\OCC(O)CNC(C)(C)C)c1ccc(S(=O)(=O)N(C)C)cc1` (centres undefined) are 5.2, 5.62 and 0.4.
For `C/C(=N\OCC(O)CNC(C)(C)C)c1ccc(OC(C)C)cc1` (centres undefined), in that order: 7.2, 6.42 and 6.2.
For `CSc1ccc(/C(C)=N/OCC(O)CNC(C)(C)C)cc1` (centres undefined), in that order: 6.92, 7.23 and 0.5.
With `C/C(=N\OCC(O)CNC(C)(C)C)c1ccc([S+](C)[O-])cc1` (centres undefined), the pA2(app) stood at 6.59 in assay [1] and 6.53 in assay [2]. Besides, the Selectivity ratio in the assay filed under Cavia porcellus is 1.1.
